The compounds below were run against vaccinia virus D10 decapping enzyme (His-tagged, WT) (Vaccinia virus, UniProt P04312) (assay: biochemical). Details: not given.
Assay type: biochemical
With `NC(=O)c1ncn([C@@H]2O[C@H](CO[P@@](=O)(O)O[P@](=O)(O)OP(=O)(O)O)[C@@H](O)[C@H]2O)n1` [Ribavirin triphosphate] the IC50 was greater than 200 µM and the Ki was greater than 0.8 µM.
In the case of `Nc1ccn([C@@H]2O[C@H](COP(=O)(O)OP(=O)(O)O)[C@@H](O)[C@H]2O)c(=O)n1` [CDP], the “Inhibition of the decapping reaction (in words)” value (“Inhibition” for short) is reported as “unable to affect the activity of the enzyme”.
For `Cc1cn([C@@H]2O[C@H](COP(=O)(O)OP(=O)(O)OP(=O)(O)O)[C@@H](O)[C@H]2O)c(=O)[nH]c1=O` [5-methyl-UTP], the “Inhibition” value was “unable to affect the activity of the enzyme”.
With `Nc1nc2nc[nH]c2c(=O)[nH]1` [Guanine] the IC50 was greater than 200 µM, the “Inhibition” value was “did not affect the decapping reaction” and the Ki was greater than 0.8 µM.
In the case of `O=P(O)(O)OP(=O)(O)O` [pyrophosphate], the “Inhibition” value is reported as “unable to inhibit”.
With `Cc1cn([C@@H]2O[C@H](COP(=O)(O)OP(=O)(O)OP(=O)(O)O)[C@@H](O)[C@H]2O)c(=O)nc1N` [5-methyl-CTP] the “Inhibition” value was “unable to affect the activity of the enzyme”.
In the case of `O=c1ccn([C@@H]2O[C@H](COP(=O)(O)OP(=O)(O)OP(=O)(O)O)[C@@H](O)[C@H]2O)c(=O)[nH]1` [UTP], the “Inhibition” value is reported as “no inhibition”.
For `Nc1ccn([C@@H]2O[C@H](COP(=O)(O)OP(=O)(O)OP(=O)(O)O)[C@@H](O)[C@H]2O)c(=O)n1` [CTP], the “Inhibition” value was “no inhibition”.
With `O=P(O)(O)OP(=O)(O)OP(=O)(O)O` [tripolyphosphate] the “Inhibition” value was “unable to inhibit”.
For `O=c1ccn([C@@H]2O[C@H](COP(=O)(O)OP(=O)(O)O)[C@@H](O)[C@H]2O)c(=O)[nH]1` [UDP], the “Inhibition” value was “unable to affect the activity of the enzyme”.

Same assay, conditions: 0.25 h, read-out: Relative decapping activity (%) (100 µM analog)
Compound `NC(=O)c1ncn([C@@H]2O[C@H](CO[P@@](=O)(O)O[P@](=O)(O)OP(=O)(O)O)[C@@H](O)[C@H]2O)n1` [Ribavirin triphosphate] has a remaining activity at 100 µM of 96 ± 3%.
Work on `Nc1nc2nc[nH]c2c(=O)[nH]1` [Guanine] yielded a remaining activity at 100 µM of 92 ± 4%.
